Measurements taken from patent US12540143B2, “Methods and compositions for targeted protein degradation” (Ranok Therapeutics (Hangzhou) Co. Ltd., priority 2019, dated 2026).

Experiments:
PBRM1 BD2 = PBRM1 BD2 (Homo sapiens, UniProt Q86U86); assay: Bromodomain Binding Assay; conditions: 10 μM Compound 074, read-out: Bromodomain Binding % of Control
BRD7 = BRD7 (Homo sapiens, UniProt Q9NPI1); assay: Bromodomain Binding Assay; conditions: 10 μM Compound 074, read-out: Bromodomain Binding % of Control
BRD7, sequence (Q9NPI1 131-235 limits assumed): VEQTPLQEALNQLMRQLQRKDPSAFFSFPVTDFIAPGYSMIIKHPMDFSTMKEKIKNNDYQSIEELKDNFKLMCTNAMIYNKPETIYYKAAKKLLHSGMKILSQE

BRD2 BD2 = BRD2 BD2 (Homo sapiens, UniProt P25440); assay: Bromodomain Binding Assay; conditions: 10 μM Compound 074, read-out: Bromodomain Binding % of Control
BRD2 BD2, sequence (P25440 344-453 limits assumed): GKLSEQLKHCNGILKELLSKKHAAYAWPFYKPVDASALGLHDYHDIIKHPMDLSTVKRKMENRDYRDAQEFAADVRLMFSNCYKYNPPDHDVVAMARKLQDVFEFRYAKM

KAT2A = KAT2A (Homo sapiens, UniProt Q92830); assay: Bromodomain Binding Assay; conditions: 10 μM Compound 074, read-out: Bromodomain Binding % of Control
KAT2A, sequence (Q92830 728-832 limits assumed): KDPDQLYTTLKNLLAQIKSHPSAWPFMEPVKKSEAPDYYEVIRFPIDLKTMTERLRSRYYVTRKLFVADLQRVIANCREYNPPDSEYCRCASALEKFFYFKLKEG

HSP90α = HSP90α (Homo sapiens, UniProt P07900); assay: HSP90α Binding Fluorescent Polarization (FP) Assay; conditions: as shown in Table 1
Protocol: HSP90α Binding Fluorescent Polarization (FP) Assay
A master mix was prepared with assay buffer, BSA and FITC-geldanamycin. In a 96-well plate, a serial 3-fold dilution of each compound was prepared ranging from 40 μM down until 2.0 nM. Also in a 96-well plate, recombinant HSP90α protein was diluted to 28 μg/ml. Then, in a 384-well plate, 10 μl of master mix and 5 μl of compound dilution were added per well to duplicate wells and mixed by brief shaking. Then 5 μl of diluted HSP90α protein was added per well, mixed by brief shaking, incubated at 25° C. for 30, 60 and 120 min and fluorescence was measured on an En Vision Plate Reader. Background-subtracted mP values were calculated from En Vision raw data and a four-parameter “log[inhibitor] vs. response” curve was fitted using GraphPad Prism 7.0.

[1] = Pharmacokinetics and tissue distribution in the MV4-11 xenograft model in mice; type: in vivo; conditions: for AUC(0-∞): 5 mg/kg single intravenous dose
Protocol: Pharmacokinetics and Tissue Distribution
15 female CB-17 SCID mice (treated in accordance with AAALAC animal welfare guidelines) were weighed and administered 5 mg/kg of compound 074 by a single intravenous injection. 0.10 mL of blood was collected from each mouse by submandibular vein and sodium heparin was added as an anticoagulant. Samples were collected before compound administration, and at 1 hr, 6 hr 24 hr and 48 hr time points after administration, with 3 mice sampled per time point. After collection, samples were placed on ice and the animals sacrificed to collect tumor and normal tissues. The method development and analysis of all samples were performed by the analytical laboratory at Shanghai Medicilon Inc. Intra-day accuracy evaluation of samples for quality control was carried out during sample analysis and a quality control accuracy of more than 66.7% of samples was required between to be 80-120%. Pharmacokinetic parameters were calculated using Phoenix WinNonlin7.0 software.

BAZ2A = BAZ2A (Homo sapiens, UniProt Q9UIF9); assay: Bromodomain Binding Assay; conditions: 10 μM Compound 074, read-out: Bromodomain Binding % of Control
BAZ2A, sequence (Q9UIF9 1793-1897 limits assumed): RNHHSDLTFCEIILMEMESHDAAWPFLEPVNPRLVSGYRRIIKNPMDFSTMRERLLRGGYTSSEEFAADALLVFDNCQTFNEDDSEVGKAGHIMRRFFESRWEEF

BRD4 = target: T1, BRD4 (Homo sapiens, UniProt O60885); assay: BRD4 western blotting in MV4-11 cells; type: cell-based
T1 construct: endogenous in cells; host or cells: MV4-11
Protocol: Cells were then collected by centrifugation, washed one time with cold PBS, supernatants aspirated and cell pellets lysed with 4° C. RIPA lysis buffer containing a protease/phosphatase inhibitor cocktail. The total protein concentrations of cell lysates were determined by BCA Protein Assay kit. Samples were normalized for equivalent protein concentrations, 5× loading buffer added and heated to 100° C. for 10 min and cooled to room temperature. 20 μl of each sample/well was loaded on a SDS-PAGE gel and electrophoresed for 20 min at 80 V, then 120 V for 1.5 hr. Gels were then electroblotted to nitrocellulose membranes using a wet-transfer method at 250 mA for 2.5 hr. Membranes were incubated with blocking buffer for 1 hr and washed 3 times with TBST for 5 min. Then membranes were incubated with anti-BRD4 (Cell Signaling Technology, #13440) and anti-beta-Actin (Cell Signaling Technology, #3700) antibodies diluted in blocking buffer per the manufacturer's recommendation at 4° C. overnight. After washing 3 times, blots were incubated with the appropriate labeled secondary antibody for 1 hr at room temperature and washed again. Images were read on a LI-COR and the optical density values of bands determined by ImageJ software. Data was analyzed using GraphPad Prism 7.0.

BRPF1 = BRPF1 (Homo sapiens, UniProt P55201); assay: Bromodomain Binding Assay; conditions: 10 μM Compound 074, read-out: Bromodomain Binding % of Control
BRPF1, sequence (P55201 628-732 limits assumed): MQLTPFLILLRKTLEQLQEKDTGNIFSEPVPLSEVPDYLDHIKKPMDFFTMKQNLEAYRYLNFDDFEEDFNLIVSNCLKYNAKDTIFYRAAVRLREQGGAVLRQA

BRD3 BD1 = BRD3 BD1 (Homo sapiens, UniProt Q15059); assay: Bromodomain Binding Assay; conditions: 10 μM Compound 074, read-out: Bromodomain Binding % of Control
BRD3 BD1, sequence (Q15059 34-140 limits assumed): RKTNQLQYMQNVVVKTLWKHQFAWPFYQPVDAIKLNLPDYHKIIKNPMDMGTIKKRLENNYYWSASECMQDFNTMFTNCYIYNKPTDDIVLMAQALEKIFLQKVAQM

ATAD2B = ATAD2B (Homo sapiens, UniProt Q9ULI0); assay: Bromodomain Binding Assay; conditions: 10 μM Compound 074, read-out: Bromodomain Binding % of Control
ATAD2B, sequence (Q9ULI0 951-1066 limits assumed): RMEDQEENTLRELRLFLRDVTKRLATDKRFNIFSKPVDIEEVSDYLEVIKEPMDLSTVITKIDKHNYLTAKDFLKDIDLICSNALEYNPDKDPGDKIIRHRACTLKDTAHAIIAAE

[2] = test system: SU-DHL-4 diffuse large B-cell lymphoma xenograft; assay: SU-DHL-4 DLBCL xenograft model in mice
Protocol: 10 μL the cell proliferation reagent CCK-8 (WST-8) was added into each well and incubated at 37° C./5% CO2 for 3-4 hr and the absorbance at 450 nm measured with an En Vision Plate Reader.
5×10^6 MV-4-11 or 1×10^7 SU-DHL-4 cells were collected and re-suspended in 0.1 mL of serum-free media with Matrigel (1:1 v/v) per mouse for subcutaneous inoculation in isoflurane anesthetized male BALB/c nude or C.B-17 scid mice, respectively (treated in accordance with AAALAC animal welfare guidelines). When the average tumor volumes reached 100-200 mm^3, tumor volume outliers were removed and the remaining animals randomly divided into groups of 6-8 with similar average tumor volumes in each group. […] Animals were intravenously dosed at 25 mg/kg, 50 mg/kg or 100 mg/kg 1×/week for 3 or 4 weeks. The appearance and behavior of each mouse was observed and recorded daily. Body weights and tumor volumes were measured and recorded every 2-4 days and the results were expressed as group means±SEM. Pairwise statistical comparisons between groups were performed by one-way ANOVA, and p<0.05 was considered statistically significant.

BRWD1 BD2 = target: T2, BRWD1 BD2 (Homo sapiens, UniProt Q9NSI6); assay: Bromodomain Binding Assay; conditions: 10 μM Compound 074, read-out: Bromodomain Binding % of Control
T2 construct: made in house; host or cells: T7 phage grown in E. coli host derived from BL21
T2 sequence (Q9NSI6 1313-1418 limits assumed): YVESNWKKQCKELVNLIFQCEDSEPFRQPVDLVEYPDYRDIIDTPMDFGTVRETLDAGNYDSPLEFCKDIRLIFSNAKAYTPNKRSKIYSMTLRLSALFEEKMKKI

CECR2 = CECR2 (Homo sapiens, UniProt Q9BXF3); assay: Bromodomain Binding Assay; conditions: 10 μM Compound 074, read-out: Bromodomain Binding % of Control
CECR2, sequence (Q9BXF3 434-538 limits assumed): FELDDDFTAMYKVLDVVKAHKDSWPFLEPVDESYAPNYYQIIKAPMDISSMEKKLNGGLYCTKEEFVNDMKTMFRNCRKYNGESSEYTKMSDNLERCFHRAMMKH

TRIM133 = target: T3, TRIM133 (Homo sapiens, UniProt Q9UPN9); assay: Bromodomain Binding Assay; conditions: 10 μM Compound 074, read-out: Bromodomain Binding % of Control
T3 construct: made in house; host or cells: T7 phage grown in E. coli host derived from BL21
T3 sequence (Q9UPN9 957-1080 limits assumed): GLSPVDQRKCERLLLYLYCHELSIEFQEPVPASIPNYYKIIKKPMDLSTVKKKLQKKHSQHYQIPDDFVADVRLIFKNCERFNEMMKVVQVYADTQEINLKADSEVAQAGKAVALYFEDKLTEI

BRD9 = BRD9 (Homo sapiens, UniProt Q9H8M2); assay: Bromodomain Binding Assay; conditions: 10 μM Compound 074, read-out: Bromodomain Binding % of Control
BRD9, sequence (Q9H8M2 136-240 limits assumed): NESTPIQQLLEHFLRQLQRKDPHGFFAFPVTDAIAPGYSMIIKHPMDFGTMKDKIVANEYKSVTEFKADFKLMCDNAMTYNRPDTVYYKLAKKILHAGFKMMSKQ

[3] = 100 mg/kg intravenous 1×/week, after 4 weeks of dosing

PBRM1 BD2, sequence (Q86U86 177-287 limits assumed): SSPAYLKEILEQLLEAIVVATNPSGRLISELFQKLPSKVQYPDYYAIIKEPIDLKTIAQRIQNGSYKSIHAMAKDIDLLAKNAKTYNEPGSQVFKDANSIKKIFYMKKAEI

Cc1sc2c(c1C)C(c1ccc(Cl)cc1)=N[C@@H](CC(=O)N1CCC(CN3CCN(Cc4ccc(-n5c(O)nnc5-c5cc(C(C)C)c(O)cc5O)cc4)CC3)CC1)c1nnc(C)n1-2.Cl [Compound 74, (S)-2-(4-(4-chlorophenyl)-2,3,9-trimethyl-6H-thieno[3,2-f][1,2,4]triazolo[4,3-a][1,4]diazepin-6-yl)-1-(4-((4-(4-(3-(2,4-dihydroxy-5-isopropylphenyl)-5-hydroxy-4H-1,2,4-triazol-4-yl)benzyl)piperazin-1-yl)methyl)piperidin-1-yl)ethan-1-one hydrochloride]
remaining activity at 10 µM (PBRM1 BD2): > 75% | remaining activity at 10 µM (BRD7): > 75% | remaining activity at 10 µM (BRD2 BD2): < 10% | remaining activity at 10 µM (KAT2A): > 75% | potency in binding to HSP90 (in words) (HSP90α): moderate potency | AUC(0-∞) ([1]; Heart): 8828.71 ng·h/g | AUC(0-∞) ([1]; Liver): 24415.49 ng·h/g | AUC(0-∞) ([1]; Lung): 14199.86 ng·h/g | AUC(0-∞) ([1]; Tumor): 23857.20 ng·h/g | half-life in tumors relative to plasma and other organs ([1]; times as long as in plasma and other organs): 4.6-9.5 times | remaining activity at 10 µM (BAZ2A): > 75% | BRD4 degradation by western blotting with proteasome inhibitor bortezomib (FIG. 2) (BRD4; MV4-11 cells treated with both compound 074 and bortezomib): BRD4 degradation was blocked | BRD4 degradation by western blotting (FIG. 1) (BRD4; MV4-11 cells, 24 hr, 100 and 300 nM): BRD4 degradation was observed | remaining activity at 10 µM (BRPF1): > 75% | remaining activity at 10 µM (BRD3 BD1): < 10% | remaining activity at 10 µM (ATAD2B): > 75% | tumor growth inhibition (FIG. 4a) [2, 3]: significant tumor growth inhibition | tumor vs control (T/C) value [2, 3]: 41% | animal deaths and body weights (FIG. 4b) ([2]; any dose level, SU-DHL-4 xenograft): No animal deaths or significant effects on body weights were observed | remaining activity at 10 µM (BRWD1 BD2): > 75% | remaining activity at 10 µM (CECR2): > 75% | remaining activity at 10 µM (TRIM133): > 75% | remaining activity at 10 µM (BRD9): > 75%
